In EPA's ToxRefDB 2:

How the values were obtained:
rat [1] = settings: Combined chronic toxicity/carcinogenicity, fischer, Oral, Feed, dose end: 103 week, group: systemic
mouse [2] = settings: Combined chronic toxicity/carcinogenicity; b6c3f1; Oral; Feed; dose end: 103 week; group: systemic; systemic / in life observation / body weight / body weight
rat [3] = settings: Prenatal developmental toxicity study, sprague dawley, Oral, Gavage/Intubation, dose end: 18 GD
rabbit [4] = settings: Sub-acute repeat dose toxicity, new zealand white, Oral, Gavage/Intubation, dose end: 13 day, group: systemic
rabbit [5] = settings: Prenatal developmental toxicity study, new zealand white, Oral, Gavage/Intubation, dose end: 19 GD, group: maternal
rat [6] = settings: Fertility (Segment I), Oral, Gavage/Intubation, dose end: 1 generation
rat [7] = settings: Fertility (Segment I), Oral, Gavage/Intubation, dose end: 1 generation, group: parental
rabbit [8] = settings: Sub-acute repeat dose toxicity, new zealand white, Oral, Gavage/Intubation, dose end: 13 day
rat [9] = settings: Combined chronic toxicity/carcinogenicity, sprague dawley, Oral, Feed, dose end: 104 week, group: systemic
rat [10] = settings: Multigenerational reproductive toxicity study, sprague dawley, Oral, Feed, dose end: 2 generation
mouse [11] = settings: Carcinogenicity, cd1, Oral, Feed, dose end: 22 month, group: systemic
[12] = systemic / pathology microscopic / pancreas / adenoma/carcinoma combined
[13] = group: developmental, developmental / developmental malformation / bone / delayed ossification + developmental / developmental malformation / kidney / dilated …
[14] = group: maternal, systemic / in life observation / body weight / body weight + systemic / in life observation / clinical signs / salivation + systemic / in …
[15] = systemic / in life observation / clinical signs / tarry stools
[16] = systemic / in life observation / clinical signs / tarry stools + systemic / in life observation / body weight / body weight + systemic / in …
[17] = reproductive / reproductive performance / aborted / aborted + systemic / in life observation / body weight / body weight gain + systemic / …
[18] = systemic / in life observation / clinical signs / abnormal feces
[19] = group: maternal, reproductive / reproductive performance / estrous cycle / length
[20] = group: parental, systemic / in life observation / body weight / body weight gain + systemic / in life observation / clinical signs / salivation + systemic / …
[21] = systemic / in life observation / body weight / body weight gain + systemic / in life observation / clinical signs / salivation
[22] = group: maternal, reproductive / reproductive performance / aborted / aborted
[23] = group: systemic, systemic / in life observation / body weight / body weight + systemic / in life observation / clinical signs / abnormal feces + systemic / …
[24] = group: systemic, systemic / in life observation / clinical signs / abnormal feces
[25] = systemic / in life observation / body weight / body weight + systemic / in life observation / body weight / body weight gain
[26] = systemic / in life observation / body weight / body weight + systemic / in life observation / body weight / body weight gain + systemic / …
[27] = group: offspring, systemic / in life observation / body weight / offspring (pup) weight
[28] = group: parental, systemic / in life observation / body weight / body weight + systemic / in life observation / body weight / body weight gain
[29] = systemic / in life observation / body weight / body weight + systemic / in life observation / body weight / body weight gain + systemic / in…

## CN(C)[C@@H]1C(=O)C(C(N)=O)=C(O)[C@@]2(O)C(=O)C3=C(O)c4c(O)cccc4[C@@](C)(O)[C@H]3C[C@@H]12.Cl [Tetracycline hydrochloride]
Rat [1]; systemic / pathology microscopic / liver / clear cell focus + systemic / pathology microscopic / liver / cytoplasmic alteration
  LOAEL: 910 mg/kg/day
Rat [1]; systemic / pathology microscopic / liver / clear cell focus + systemic / pathology microscopic / liver / cytoplasmic alteration + systemic…
  NOAEL: 440 mg/kg/day
Rat [1]; [12]
  LEL: 440 mg/kg/day
  NEL: < 440 mg/kg/day
Mouse [2]
  LEL: 1500 mg/kg/day
  LOAEL: 1500 mg/kg/day
  NEL: < 1500 mg/kg/day
  NOAEL: < 1500 mg/kg/day

## CCOc1cccc(C2(N3CCN(c4ccccc4)CC3)CCC(C)CC2)c1.CS(=O)(=O)O (centres undefined)
Rat [3]; [13]
  LEL: 60 mg/kg/day
  LOAEL: > 125 mg/kg/day
  NOAEL: ≥ 125 mg/kg/day
Rat [3]; [14]
  LEL: 60 mg/kg/day
  LOAEL: > 125 mg/kg/day
  NEL: 12 mg/kg/day
  NOAEL: ≥ 125 mg/kg/day
Rabbit [4]; [15]
  LEL: 100 mg/kg/day
  NEL: < 100 mg/kg/day
Rabbit [4]; [16]
  LOAEL: > 1000 mg/kg/day
  NOAEL: ≥ 1000 mg/kg/day
Rabbit [5]; [17]
  LOAEL: > 300 mg/kg/day
  NOAEL: ≥ 300 mg/kg/day
Rabbit [5]; [18]
  LEL: 15 mg/kg/day
  NEL: < 15 mg/kg/day
Rat [6]; [19]
  LEL: 10 mg/kg/day
  LOAEL: > 100 mg/kg/day
  NEL: < 10 mg/kg/day
  NOAEL: ≥ 100 mg/kg/day
Rat [6]; [20]
  LEL: 30 mg/kg/day
  LOAEL: > 100 mg/kg/day
  NEL: 10 mg/kg/day
  NOAEL: ≥ 100 mg/kg/day
Rat [7]; [21]
  LOAEL: > 100 mg/kg/day
  NEL: 10 mg/kg/day
  NOAEL: ≥ 100 mg/kg/day
Rat [7]; systemic / in life observation / clinical signs / salivation
  LEL: 30 mg/kg/day
Rabbit [8]; [22]
  LEL: 300 mg/kg/day
  LOAEL: > 500 mg/kg/day
  NEL: 100 mg/kg/day
  NOAEL: ≥ 500 mg/kg/day
Rabbit [8]; [23]
  LOAEL: > 500 mg/kg/day
  NOAEL: ≥ 500 mg/kg/day
Rabbit [8]; [24]
  LEL: 100 mg/kg/day
  NEL: < 100 mg/kg/day

## COc1nc(NC(C)C)nc(NC(C)C)n1 [Prometon]
Rat [9]; [25]
  LEL: 23.3 mg/kg/day
  LOAEL: 23.3 mg/kg/day
Rat [9]; [26]
  NEL: 0.89 mg/kg/day
  NOAEL: 0.89 mg/kg/day
Rat [10]; [27]
  LEL: 35.1 mg/kg/day
  LOAEL: 35.1 mg/kg/day
  NEL: 1.45 mg/kg/day
  NOAEL: 1.45 mg/kg/day
Rat [10]; [28]
  LEL: 35.1 mg/kg/day
  LOAEL: 35.1 mg/kg/day
  NEL: 1.45 mg/kg/day
  NOAEL: 1.45 mg/kg/day
Mouse [11]; [29]
  LOAEL: 737 mg/kg/day
  NEL: 1.7 mg/kg/day
  NOAEL: 70 mg/kg/day
Mouse [11]; systemic / pathology microscopic / spleen / depletion
  LEL: 70 mg/kg/day
